Assay results as given in patent US20240141299A1, “Cofactors FAD and PLP for Promoting Pancreatic Progenitors in Pancreatic Development” (Qatar Foundation for Education, Science and Community …, priority 2022, published 2024).

Assays:
[1] = test system: hiPSC-derived pancreatic progenitors; test: Western blotting of transcription factors in FAD-treated pancreatic progenitors; type: cell-based, human; conditions: FIG. 7
Procedure: (§1) Human induced pluripotent stem cells (hiPSCs) are cultured and maintained using mTeSR Plus medium (Stem Cell Technologies, Canada), then plated on 1:50 Matrigel-coated dishes (Corning, USA). Upon reaching 70-80% confluency, cells are differentiated into pancreatic progenitors using a protocol described by Memon et al. (Memon et al. Stem Cell Research and Therapy, 9, Article 15, 2018). Cells are treated with different concentrations of FAD (0.25 μM, 0.5 μM, and 1 μM) (Sigma-Aldrich, Germany) during the four days of pancreatic progenitor stage of in vitro differentiation. The control cells are treated with water. After the treatment period, cells are fixed and immunostaining is performed using previously reported protocols by Memon et al. Cells are also collected for total protein extraction using Radioimmunoprecipitation Assay (RIPA) lysis buffer and are normalized to 20 ng/μL before SDS-PAGE separation. Nitrocellulose membranes are blocked using 15% skimmed milk in 0.5% tris-buffered saline (TBST). Membranes are then incubated with primary antibodies overnight at 4° C. Membranes are washed with 0.5% TBST and secondary antibodies are added for 1 hour at room temperature. Membranes are developed using SuperSignal West Pico Chemiluminescent substrate (Pierce, Loughborough, UK) and are then visualized using iBright™ CL 1000 Imaging System (Invitrogen).

[2] = molecular target: T1, SOX2 HMG domain (Homo sapiens, UniProt P48431); test: UV-visible absorbance spectroscopy of purified SOX2 HMG domain for bound cofactor; type: binding; conditions: purified SOX2 HMG domain from bacterial expression
T1 construct: made in house
T1 sequence (P48431 41-109 limits assumed): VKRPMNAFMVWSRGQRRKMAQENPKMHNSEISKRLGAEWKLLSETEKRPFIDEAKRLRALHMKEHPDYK

[3] = molecular target: T2, SOX9 HMG domain (Mus musculus, UniProt Q04887); test: UV-visible absorbance spectroscopy of purified SOX9 HMG domain for bound cofactor; type: binding; conditions: purified SOX9 HMG domain from bacterial expression; FIG. 1E
T2 construct: construct containing HMG and N-terminal domain, 1-173 amino acids; His tag (pET-28a) (N); made in house; host or cells: E. coli BL21(DE3)-RIL
T2 sequence (Q04887 1-173): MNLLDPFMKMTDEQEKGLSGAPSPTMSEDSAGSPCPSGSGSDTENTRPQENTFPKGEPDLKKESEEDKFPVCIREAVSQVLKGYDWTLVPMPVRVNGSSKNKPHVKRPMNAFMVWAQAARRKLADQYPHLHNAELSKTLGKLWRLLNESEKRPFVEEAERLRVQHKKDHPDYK
Procedure: Purified SOX9 proteins of 2-4 mg/ml concentration are used for reading the absorbance of bind cofactors. The UV-Vis spectra are obtained on a UV-Vis spectrophotometer BMS (Biotechnology Medical Science) UV-1602, scanning from 300 nm to 800 nm. The baseline is corrected with the buffer used to prepare the protein samples.

[4] = test system: hiPSC-derived pancreatic progenitors; test: Immunostaining of PDX1 and NKX6.1 in FAD-treated pancreatic progenitors; type: cell-based, human; conditions: different FAD concentrations during four days of pancreatic progenitor stage; FIG. 6
Procedure: as §1

[5] = test system: hiPSC-derived pancreatic progenitors; test: Expression of pancreatic developmental markers after cofactor treatment of differentiating hiPSCs (FIG. 5, FIG. 8); type: cell-based, human
Procedure: Human induced pluripotent stem cells (hiPSCs) are cultured and maintained using mTeSR Plus medium (Stem Cell Technologies, Canada), then plated on 1:50 Matrigel-coated dishes (Corning, USA). Upon reaching 70-80% confluency, cells are differentiated into pancreatic progenitors using a protocol described by Memon et al. (Memon et al. Stem Cell Research and Therapy, 9, Article 15, 2018). Cells are treated with different concentrations of FAD (0.25 μM, 0.5 μM, and 1 μM) (Sigma-Aldrich, Germany) during the four days of pancreatic progenitor stage of in vitro differentiation. The control cells are treated with water.

[6] = molecular target: T2, SOX9 HMG domain; test: 1D-PAGE in-gel digest and LC-MS/MS of SOX9 HMG domain to identify bound cofactor; type: binding; conditions: purified SOX9 HMG domain; FIG. 2
Procedure: MS data are analyzed and annotated with Genedata Expressionist software (v.13.0.1) using the Peptide Mapping Tool. The raw MS data are processed using two Genedata modules: Refiner MS for data pre-processing, and Analyst for data post-processing and statistical analyses. Briefly, after noise reduction, LC-MS1 base peaks are detected and their properties calculated (m/z and RT boundaries, m/z and RT center values, intensity). Chromatograms are further aligned based on the RT spectra using a 2 min range. Individual peaks are grouped into clusters and MS/MS data associated to these clusters are annotated with the Peptide Mapping Tool using the FASTA sequence of sp|Q04887|SOX9_MOUSE Transcription factor SOX-9. The search is performed with a peptide tolerance of 0.1 Da, a MS/MS tolerance of 0.01 Da, two allowed missed cleavages, and only annotations with a minimum score of 10 are considered. As variable modifications, the following parameters are applied: carbamidomethyl (C) maximum: 2 per sequence allowed: anywhere, FAD (C), FAD (H), FAD (Y) maximum: 2 per sequence allowed: anywhere, FMN (S), FMN (T) maximum: 2 per sequence allowed: anywhere, pyridoxal phosphate (K) maximum: 2 per sequence allowed: anywhere, and pyridoxal phosphate H2 (K) maximum: 2 per sequence allowed: anywhere.

| absorbance peak at approximately 420 nm (FAD-bound protein) [2] | cofactor binding detected by LC-MS/MS peaks [6] | SMILES | PTF1a level (exocrine marker) ([1]; 0.5 μM and 1 μM FAD) | SOX9 level ([1]; FAD 0.25 μM, 0.5 μM, 1 μM, four days of pancreatic progenitor stage) | absorbance peak at approximately 420 nm (FAD-bound protein) [3] | co-expression of PDX1 and NKX6.1 (efficiency of pancreatic progenitor differentiation) [4] | relative changes in NGN3 and NKX6.1 ([5]; FAD added to early stage differentiation, FIG. 5) | expression of NGN3 ([5]; about 0.5 μM FAD, FIG. 8A) | expression of NGN3 ([5]; about 4 μM-8 μM PLP, FIG. 8B) | expression of PTF1a ([5]; about 4 μM-8 μM PLP, FIG. 8B) |
| --- | --- | --- | --- | --- | --- | --- | --- | --- | --- | --- |
| no obvious peak | suggestive of FAD, FMN and PLP binding | Cc1cc2nc3c(=O)[nH]c(=O)nc-3n(C[C@H](O)[C@H](O)[C@H](O)COP(=O)(O)OP(=O)(O)OC[C@H]3O[C@@H](n4cnc5c(N)ncnc54)[C@H](O)[C@@H]3O)c2cc1C [FAD, Flavin Adenine Dinucleotide] | increased | increases gradually with increased FAD concentrations | peak at approximately 420 nm characteristic of an FAD-bound protein | most of the pancreatic progenitor cells co-expressed PDX1 and NKX6.1 | appears to increase pancreatic developmental factors | along with NGN3 |  |  |
|  | suggestive of FAD, FMN and PLP binding | Cc1cc2nc3c(=O)[nH]c(=O)nc-3n(C[C@H](O)[C@H](O)[C@H](O)COP(=O)(O)O)c2cc1C [FMN, Flavin Mononucleotide] |  |  |  |  |  |  |  |  |
|  | suggestive of FAD, FMN and PLP binding | Cc1ncc(COP(=O)(O)O)c(C=O)c1O [PLP, Pyridoxal 5′-phosphate] |  |  |  |  |  |  | high expression of NGN3 | appearance of PTF1a |
